Molecules are shown by their SMILES.

For the first assay, the target named is T1, Bromodomain-containing protein 4 (Homo sapiens, UniProt O60885). In words: Inhibition of human BRD4-BD1 (49 to 170 residues) expressed in Escherichia coli BL21(DE3) using N-C:SGRG-K(Ac)-GG-K(Ac)-GLG-K(Ac)-GGA-K(Ac)-RHRKVGG-K(biotin) as substrate preincubated for 15 mins followed by substrate addition measured after 5 mins by AlphaScreen assay relative to control. On the set-up: concentration or dose not given beside the values. A general note: Bead proximity is the source of the signal in Alpha formats.
Broadly, the inhibition is the change of the read-out against control, counted positive when it falls. For the compound `O=c1cc(NCCCn2ccnc2)c2ccccc2o1`, the inhibition turned out to be 58.5%. Same read-out and setting: as for `COc1ccc(C(=O)N(C)CCCNc2cc(=O)oc3ccccc23)cc1`, the figure is 48.9%. Still for that read-out and setting: as for `O=c1cc(NCCCN2CCOCC2)c2ccccc2o1`, the figure is 59.9%; as for `CN(CCCNC(=O)c1nc2ccccc2c(=O)[nH]1)C(=O)c1cccs1`, 56.5%; as for `CN(CCCNc1cc(=O)oc2ccccc12)S(=O)(=O)c1ccccc1`, 28.6%. Still for that read-out and setting: as for `CN1CCN(CCCNc2c(N)c(=O)oc3ccccc23)CC1`, the figure is 24.5%; as for `O=C(NCCNc1cc(=O)oc2ccccc12)c1cccs1`, 72%.

With `CN(CCCNc1cc(=O)oc2ccccc12)C(=O)c1ccco1`, the inhibition is 98%. Same read-out and setting: as for `CN(CCCNc1cc(=O)oc2ccccc12)C(=O)C(C)(C)C`, the figure is 96.2%; as for `O=C(NCCCNc1cc(=O)oc2ccccc12)c1cccnc1`, 30.2%.

`COc1cccc2cc(C(=O)N(C)C)c(=O)oc12` returned an inhibition of 38.5%.

On to `CN(CCCNc1cc(=O)oc2ccccc12)C(=O)c1cccc(Cl)c1`, for which the inhibition was 97.1%. Regarding `CN(CCCNc1cc(=O)oc2ccccc12)C(=O)c1cccc(F)c1`, the inhibition was 97.3%.

As for `O=c1oc2ccccc2c(NCCCN2CCOCC2)c1[N+](=O)[O-]`, the inhibition came out at 42.8%. `O=C(NCCCNC(=O)c1cccs1)c1nc2ccccc2c(=O)[nH]1` came in with an inhibition of 71.5%. The same measure, in the same setting: to `O=C(CNc1cc(=O)oc2ccccc12)OCC(=O)c1ccc(Br)cc1` belongs 97.4%.

As to `CN(C)CCCNCCCNc1cc(=O)oc2ccccc12`, the inhibition amounted to 37.2%.

Compound `O=c1cc(NCCCN2CCN(Cc3ccccc3)CC2)c2ccccc2o1` registered an inhibition of 52.3%. Compound `O=C(NCCNc1cc(=O)oc2ccccc12)c1ccc2ccccc2n1` displayed an inhibition of 12.8%.

In turn, `O=c1oc2ccccc2c(NC2CCN(Cc3ccccc3)CC2)c1[N+](=O)[O-]` had an inhibition of 58.5%. On the same count and under the same terms, to `O=c1oc2ccccc2c2ncn(CCCN3CCOCC3)c12` belongs 40.7%. On the same count and under the same terms, to `O=c1cc(NC2CCN(CCCc3ccccc3)CC2)c2ccc(Cl)cc2o1` belongs 22.1%. Still for that read-out and setting: to `O=C(NCCNc1cc(=O)oc2ccccc12)c1ccco1` belongs 43.6%.

The target in another assay is T1, Bromodomain-containing protein 4. Kind of assay: Inhibition of human BRD4-BD1 (49 to 170 residues) expressed in Escherichia coli BL21(DE3) using N-C:SGRG-K(Ac)-GG-K(Ac)-GLG-K(Ac)-GGA-K(Ac)-RHRKVGG-K(biotin) as substrate preincubated for 15 mins followed by substrate addition measured after 5 mins by AlphaScreen assay.
In general, IC50 refers to the midpoint of a concentration-inhibition curve. For the compound `O=C(CN1CC(=O)Oc2ccccc21)OCC(=O)c1ccc(Br)cc1`, the IC50 amounted to 1.11 µM.

Compound `Cc1[nH]n(-c2nc(O)c(Cc3ccccc3)c(=O)[nH]2)c(=O)c1CCO` yielded an IC50 of 3.09 µM. The same measure, in the same setting: as for `COC(=O)C(O)(c1cc(C)c2cccnc2c1O)C(F)(F)F` (configuration not stated), the figure is 2.1 µM.

`CC(=O)N(C)c1ccc(NC(=O)COc2ccc(Br)cc2Cl)cc1` registered an IC50 of 50.9 µM. In turn, `O=c1[nH]n(CC2COC3(CCCCC3)O2)c(=O)c2ccccc12` (configuration not stated) gave an IC50 of 13.3 µM. Same read-out and setting: to `CCN1C(=O)c2cccc3c(S(=O)(=O)Nc4ccccc4C)ccc1c23` belongs 9.68 µM; to `Cc1ccn(-c2ccc(NCCNC(=O)c3ccc(Br)o3)nn2)n1`, 21.3 µM. Turning to `COc1ccccc1NC(=O)CCSc1cccc2cccnc12`, the IC50 turned out to be 18.7 µM. Take `CCCn1nnc(NC(=O)COc2ccc(Cl)cc2C)n1`: the IC50 was 23.1 µM. As for `CCc1nnc(NC(=O)C2(C)COC(c3ccccc3)OC2)s1` (configuration not stated), 69.2 µM corresponded to half-maximal inhibition (IC50). Still for that read-out and setting: to `CN(CCCNc1cc(=O)oc2ccccc12)C(=O)c1ccco1` belongs 2.05 µM; to `CN(CCCNc1cc(=O)oc2ccccc12)C(=O)C(C)(C)C`, 4.56 µM; to `CN(CCCNc1cc(=O)oc2ccccc12)C(=O)c1cccc(Cl)c1`, 3.65 µM. Turning to `CC(=O)CC(c1ccccc1)c1c(O)c2ncccc2oc1=O` (configuration not stated), half-maximal inhibition (IC50) required 2.83 µM. Consider `O=C(Nc1ccc(Cl)cn1)c1c(F)c(F)c(F)c(F)c1F`, for which the IC50 worked out at 32.2 µM. On the same count and under the same terms, to `N#Cc1c(-c2ccc(Cl)cc2)cc(-c2cccs2)nc1SCC(=O)NCC(=O)O` belongs 0.89 µM. Same read-out and setting: as for `O=C(NCc1n[nH]c(=O)c2ccccc12)c1cccc(Cl)c1`, the figure is 47.3 µM. With `CCOC(=O)c1ncccc1NC(=O)CC(=O)Nc1cccnc1C(=O)OCC`, 2.87 µM corresponded to half-maximal inhibition (IC50). `CC(=O)C(C(C)=O)C(c1ccc(Cl)cc1)c1ccc(Cl)cc1`: the IC50 was determined as 27.5 µM. Turning to `Cc1ccc(-[n+]2c3ccccc3nc3ccc(N4CCOCC4)cc32)cc1`, it took 10.9 µM to reach half-maximal inhibition (IC50). Take `CCCNS(=O)(=O)c1ccc2c3c(cccc13)C(=O)N2CC`: the IC50 was determined as 2.64 µM.

Consider `c1coc(-c2nnc(-c3ccc4ccccc4c3)c3nocc23)c1`, for which half-maximal inhibition (IC50) was put at 13.3 µM. Still for that read-out and setting: to `O=C(c1ccccc1)c1ccc(NS(=O)(=O)c2cccc(Br)c2)cc1` belongs 39 µM. `COc1ccc(/C=C(\NC(=O)c2ccc(C)cc2)C(=O)NCCCn2ccnc2)cc1` yielded an IC50 of 11 µM.

With `CN(CCCNc1cc(=O)oc2ccccc12)C(=O)c1cccc(F)c1`, the IC50 was 8.18 µM. Same read-out and setting: as for `O=C(NCCNc1ccc(-n2cccn2)nn1)c1ccccc1Cl`, the figure is 11.2 µM; as for `O=C(CNc1cc(=O)oc2ccccc12)OCC(=O)c1ccc(Br)cc1`, 1.04 µM. Still for that read-out and setting: to `Cc1ccc(C)c(NC(=O)CC(c2ccccc2)c2ccccc2)c1` belongs 50.7 µM.

Regarding `CC1(C)CON(Cc2ccc(N3C(=O)c4cccnc4C3=O)cc2Cl)C1=O`, the IC50 was 12.7 µM. Take `CCN1C(=O)c2cccc3c(S(=O)(=O)N4CCCC4)ccc1c23`: the IC50 was 1.91 µM. The compound `COc1ccc(C2=NN(C(=O)CCCC(=O)O)C(c3cn(-c4ccccc4)nc3-c3ccccc3)C2)cc1` (configuration not stated) came in with an IC50 of 5.36 µM. Regarding `O=C(NCCNc1ccc(-n2cccn2)nn1)c1ccccc1`, the IC50 turned out to be 13.8 µM. Same read-out and setting: as for `CCCNS(=O)(=O)c1ccc2c3c(cccc13)C(=O)N2C`, the figure is 9.57 µM; as for `O=C(Nc1cccc(S(=O)(=O)N2CCCC2)c1)c1nc[nH]n1`, 42.2 µM.

The record behind these values is ChEMBL document CHEMBL4011609, “Discovery of novel BRD4 inhibitors by high-throughput screening, crystallography, and cell-based assays” (Bioorg Med Chem Lett, 2017).
